For 25 compounds, IC50 results are on record in patent US8445510B2, “Fused bicyclic kinase inhibitors” (OSI Pharmaceuticals, LLC, priority 2011, dated 2013).

SMILES strings stand for the structures. A value given as a limit tells only on which side of the number the result lay.

For one test, the system named is Karpas-299 cells. The test is described as follows: Karpas-299 cell proliferation assay (CellTiter-Glo). In kind it is cell-based. The note with it: Homo sapiens, 72 h; Karpas-299 cell line (NPM-ALK); 3 days incubation; at least duplicate experiments; read-out: Prolif. IC50.
Another test deals with T1, Aurora B (Homo sapiens, UniProt Q96GD4).
T1 construct: HT-29 cells grown in complete growth media
As to the kind of experiment: Aurora B cell mechanistic assay (HT-29), phospho-Histone H3 (Ser10) ELISA. In kind it is cell-based. The note with it: HT-29 cell line; inhibition of phospho-Histone H3 (Ser10); at least duplicate experiments (italicized if single experiment); read-out: Aurora B mech IC50. The procedure, abridged:
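HT-29 cells treated 1 h at 37 °C with serially diluted compound, then 100 nM Calyculin A added for 30 min. Lysates assayed by phospho-Histone H3 (Ser10) ELISA at 450 nm; normalized to DMSO (100%) and a reference Aurora B inhibitor (full inhibition); IC50 by four-parameter fit.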

T1 sequence (Q96GD4 whole entry): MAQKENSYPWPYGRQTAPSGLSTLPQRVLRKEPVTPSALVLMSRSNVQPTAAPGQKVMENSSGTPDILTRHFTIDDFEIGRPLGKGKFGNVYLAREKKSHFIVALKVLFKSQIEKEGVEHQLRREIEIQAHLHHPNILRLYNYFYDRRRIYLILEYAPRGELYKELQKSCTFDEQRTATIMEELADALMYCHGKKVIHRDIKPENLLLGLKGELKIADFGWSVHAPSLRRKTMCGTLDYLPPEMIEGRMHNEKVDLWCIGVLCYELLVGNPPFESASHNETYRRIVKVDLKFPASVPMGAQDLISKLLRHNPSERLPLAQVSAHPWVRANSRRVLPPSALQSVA

For `COc1ccc(F)c(Cl)c1[C@@H](C)c1c[nH]c2ncc(-c3cnn(C)c3N)cc12` [Example 38, 4-{3-[(1S)-1-(2-Chloro-3-fluoro-6-methoxyphenyl)ethyl]-1H-pyrrolo[2,3-b]pyridin-5-yl}-1-methyl-1H-pyrazol-5-amine], the IC50 lay within 0.05 to 0.2 µM with Karpas-299 cells and 0.2 to 1 µM at Aurora B.

As for `COc1ccc(F)c(Cl)c1[C@@H](C)c1c[nH]c2ncc(-c3cn(C)nc3C(N)=O)cc12` [Example 39, 4-{3-[(1S)-1-(2-Chloro-3-fluoro-6-methoxyphenyl)ethyl]-1H-pyrrolo[2,3-b]pyridin-5-yl}-1-methyl-1H-pyrazole-3-carboxamide], the half-inhibitory concentration (IC50) with Karpas-299 cells is 0.2 to 1 µM; at Aurora B, greater than 1 µM.

As for `COc1ccc(F)c(Cl)c1[C@@H](C)c1c[nH]c2ncc(-c3c(C)nn(C)c3C(N)=O)cc12` [Example 41, 4-{3-[(1S)-1-(2-Chloro-3-fluoro-6-methoxyphenyl)ethyl]-1H-pyrrolo[2,3-b]pyridin-5-yl}-1,3-dimethyl-1H-pyrazole-5-carboxamide], the half-maximal inhibitory concentration (IC50) in the test with Karpas-299 cells and at Aurora B was greater than 1 µM throughout.

With `COc1ccc(F)c(Cl)c1[C@@H](C)c1c[nH]c2ncc(-c3cn(C)nc3CO)cc12` [Example 42, (4-{3-[(1S)-1-(2-Chloro-3-fluoro-6-methoxyphenyl)ethyl]-1H-pyrrolo[2,3-b]pyridin-5-yl}-1-methyl-1H-pyrazol-3-yl)methanol], the figures for the IC50 with Karpas-299 cells and at Aurora B were 0.05 to 0.2 µM and 0.2 to 1 µM, respectively.

`COc1ccc(F)c(Cl)c1[C@@H](C)c1c[nH]c2ncc(-c3cnn(C)c3C(N)=O)cc12` [Example 43, 4-{3-[(1S)-1-(2-Chloro-3-fluoro-6-methoxyphenyl)ethyl]-1H-pyrrolo[2,3-b]pyridin-5-yl}-1-methyl-1H-pyrazole-5-carboxamide]: the IC50 with Karpas-299 cells and on Aurora B was greater than 1 µM in each case.

Consider `COc1ccc(F)c(Cl)c1[C@@H](C)c1c[nH]c2ncc(-c3cnn(C)c3CO)cc12` [Example 44, (4-{3-[(1S)-1-(2-Chloro-3-fluoro-6-methoxyphenyl)ethyl]-1H-pyrrolo[2,3-b]pyridin-5-yl}-1-methyl-1H-pyrazol-5-yl)methanol], for which the IC50 in the test with Karpas-299 cells is 0.05 to 0.2 µM; on Aurora B, greater than 1 µM.

Take `COc1ccc(F)c(Cl)c1[C@@H](C)c1c[nH]c2ncc(-c3c(C)nn(C)c3CO)cc12` [Example 45, (4-{3-[(1S)-1-(2-Chloro-3-fluoro-6-methoxyphenyl)ethyl]-1H-pyrrolo[2,3-b]pyridin-5-yl}-1,3-dimethyl-1H-pyrazol-5-yl)methanol]: the IC50 in the test on Karpas-299 cells is 0.05 to 0.2 µM; at Aurora B it was greater than 1 µM.

Take `COc1ccc(F)c(Cl)c1[C@@H](C)c1c[nH]c2ncc(-c3cn(C)nc3C#N)cc12` [Example 46, 4-{3-[(1S)-1-(2-Chloro-3-fluoro-6-methoxyphenyl)ethyl]-1H-pyrrolo[2,3-b]pyridin-5-yl}-1-methyl-1H-pyrazole-3-carbonitrile]: the IC50 was 0.2 to 1 µM in the test with Karpas-299 cells and greater than 1 µM at Aurora B.

Regarding `CCc1nn([C@H]2CC[C@H](O)CC2)cc1-c1cnc2[nH]cc([C@H](C)c3c(OC)ccc(F)c3Cl)c2c1` [Example 47, trans-4-(4-{3-[(1S)-1-(2-Chloro-3-fluoro-6-methoxyphenyl)ethyl]-1H-pyrrolo[2,3-b]pyridin-5-yl}-3-ethyl-1H-pyrazol-1-yl)cyclohexanol], the half-maximal inhibitory concentration (IC50) was 0.05 to 0.2 µM in the test on Karpas-299 cells and greater than 1 µM on Aurora B.

As to `CCc1c(-c2cnc3[nH]cc([C@H](C)c4c(OC)ccc(F)c4Cl)c3c2)cnn1[C@H]1CC[C@H](O)CC1` [Example 48, trans-4-(4-{3-[(1S)-1-(2-Chloro-3-fluoro-6-methoxyphenyl)ethyl]-1H-pyrrolo[2,3-b]pyridin-5-yl}-5-ethyl-1H-pyrazol-1-yl)cyclohexanol], the values for the IC50 in the test with Karpas-299 cells and on Aurora B were 0.05 to 0.2 µM and greater than 1 µM, respectively.

For the compound `COc1ccc(F)c(Cl)c1[C@@H](C)c1c[nH]c2ncc(-c3cnn([C@H]4CC[C@H](O)CC4)c3Cl)cc12` [Example 49, trans-4-(5-Chloro-4-{3-[(1S)-1-(2-chloro-3-fluoro-6-methoxyphenyl)ethyl]-1H-pyrrolo[2,3-b]pyridin-5-yl}-1H-pyrazol-1-yl)cyclohexanol], the IC50 in the test on Karpas-299 cells was 0.05 to 0.2 µM; on Aurora B it was greater than 1 µM.

As to `COc1ccc(F)c(Cl)c1[C@@H](C)c1c[nH]c2ncc(-c3cn(C)nc3CN)cc12` [Example 50, 1-(4-{3-[(1S)-1-(2-Chloro-3-fluoro-6-methoxyphenyl)ethyl]-1H-pyrrolo[2,3-b]pyridin-5-yl}-1-methyl-1H-pyrazol-3-yl)methanamine], the IC50 with Karpas-299 cells and at Aurora B was 0.2 to 1 µM in each case.

For the compound `COc1ccc(F)c(Cl)c1[C@@H](C)c1c[nH]c2ncc(-c3c(CO)nn(C)c3C)cc12` [Example 51, (4-{3-[(1S)-1-(2-Chloro-3-fluoro-6-methoxyphenyl)ethyl]-1H-pyrrolo[2,3-b]pyridin-5-yl}-1,5-dimethyl-1H-pyrazol-3-yl)methanol], the IC50 with Karpas-299 cells is 0.05 to 0.2 µM; on Aurora B, greater than 1 µM.

For the compound `COc1ccc(F)c(Cl)c1[C@@H](C)c1c[nH]c2ncc(-c3cnn([C@H]4CC[C@@H](O)CC4)c3C)cc12` [Example 52, cis-4-(4-{3-[(1S)-1-(2-Chloro-3-fluoro-6-methoxyphenyl)ethyl]-1H-pyrrolo[2,3-b]pyridin-5-yl}-5-methyl-1H-pyrazol-1-yl)cyclohexanol], the IC50 in the test on Karpas-299 cells was 0.05 to 0.2 µM; at Aurora B, greater than 1 µM.

With `COc1ccc(F)c(Cl)c1[C@@H](C)c1c[nH]c2ncc(-c3cnn([C@H]4CC[C@H](N(C)C)CC4)c3C)cc12` [Example 53, trans-4-(4-{3-[(1S)-1-(2-Chloro-3-fluoro-6-methoxyphenyl)ethyl]-1H-pyrrolo[2,3-b]pyridin-5-yl}-5-methyl-1H-pyrazol-1-yl)-N,N-dimethylcyclohexanamine], the IC50 in the test on Karpas-299 cells was no more than 0.05 µM; on Aurora B it was 0.05 to 0.2 µM.

Take `COc1ccc(F)c(Cl)c1[C@@H](C)c1c[nH]c2ncc(-c3cnn([C@H]4CC[C@@H](N(C)C)CC4)c3C)cc12` [Example 54, cis-4-(4-{3-[(1S)-1-(2-Chloro-3-fluoro-6-methoxyphenyl)ethyl]-1H-pyrrolo[2,3-b]pyridin-5-yl}-5-methyl-1H-pyrazol-1-yl)-N,N-dimethylcyclohexanamine]: the IC50 is no more than 0.05 µM in the test with Karpas-299 cells and 0.2 to 1 µM at Aurora B.

Take `COc1ccc(F)c(Cl)c1[C@@H](C)c1c[nH]c2ncc(-c3cn(C)nc3Cl)cc12` [Example 60, 3-[(1S)-1-(2-chloro-3-fluoro-6-methoxyphenyl)ethyl]-5-(3-chloro-1-methyl-1H-pyrazol-4-yl)-1H-pyrrolo[2,3-b]pyridine]: the IC50 was 0.05 to 0.2 µM in the test on Karpas-299 cells and 0.2 to 1 µM at Aurora B.

`COc1ccc(F)c(Cl)c1[C@@H](C)c1c[nH]c2ncc(-c3cn(C)nc3OC)cc12` [Example 61, 3-[(1S)-1-(2-Chloro-3-fluoro-6-methoxyphenyl)ethyl]-5-(3-methoxy-1-methyl-1H-pyrazol-4-yl)-1H-pyrrolo[2,3-b]pyridine]: the IC50 is 0.2 to 1 µM in the test with Karpas-299 cells and greater than 1 µM on Aurora B.

In the case of `COc1ccc(F)c(Cl)c1[C@@H](C)c1c[nH]c2ncc(-c3cnn(C)c3OC)cc12` [Example 62, 3-[(1S)-1-(2-chloro-3-fluoro-6-methoxyphenyl)ethyl]-5-(5-methoxy-1-methyl-1H-pyrazol-4-yl)-1H-pyrrolo[2,3-b]pyridine], the IC50 in the test with Karpas-299 cells was 0.2 to 1 µM; on Aurora B it was greater than 1 µM.

As for `COc1ccc(F)c(Cl)c1[C@@H](C)c1c[nH]c2ncc(-c3c(C)nn(C)c3Cl)cc12` [Example 63, 5-(5-Chloro-1,3-dimethyl-1H-pyrazol-4-yl)-3-[(1S)-1-(2-chloro-3-fluoro-6-methoxyphenyl)ethyl]-1H-pyrrolo[2,3-b]pyridine], the IC50 in the test on Karpas-299 cells was 0.2 to 1 µM; at Aurora B it was greater than 1 µM.

Consider `COc1ccc(F)c(Cl)c1[C@@H](C)c1c[nH]c2ncc(-c3cncn3C)cc12` [Example 64, 3-[(1S)-1-(2-Chloro-3-fluoro-6-methoxyphenyl)ethyl]-5-(1-methyl-1H-imidazol-5-yl)-1H-pyrrolo[2,3-b]pyridine], for which the results for the IC50 in the test on Karpas-299 cells and at Aurora B were 0.2 to 1 µM and greater than 1 µM, respectively.

As for `COc1ccc(F)c(Cl)c1[C@@H](C)c1c[nH]c2ncc(-c3cnc(C)n3C)cc12` [Example 65, 3-[(1S)-1-(2-chloro-3-fluoro-6-methoxyphenyl)ethyl]-5-(1,2-dimethyl-1H-imidazol-5-yl)-1H-pyrrolo[2,3-b]pyridine], the IC50 was 0.2 to 1 µM in the test on Karpas-299 cells and greater than 1 µM on Aurora B.

With `Cc1nn(C[C@@H](O)CO)c(C)c1-c1cnc2[nH]cc([C@H](C)c3c(Cl)ccc(F)c3Cl)c2c1` [Example 66, (2R)-3-(4-{3-[(1S)-1-(2,6-Dichloro-3-fluorophenyl)ethyl]-1H-pyrrolo[2,3-b]pyridin-5-yl}-3,5-dimethyl-1H-pyrazol-1-yl)propane-1,2-diol], the IC50 with Karpas-299 cells was no more than 0.05 µM; at Aurora B, greater than 1 µM.

Take `Cc1c(-c2cnc3[nH]cc([C@H](C)c4c(Cl)ccc(F)c4Cl)c3c2)cnn1[C@H]1CC[C@H](O)CC1` [Example 67, trans-4-(4-{3-[(1S)-1-(2,6-Dichloro-3-fluorophenyl)ethyl]-1H-pyrrolo[2,3-b]pyridin-5-yl}-5-methyl-1H-pyrazol-1-yl)cyclohexanol]: the IC50 in the test with Karpas-299 cells was 0.05 to 0.2 µM; at Aurora B, greater than 1 µM.

With `Cc1nn(C[C@@H](O)CO)c(C)c1-c1cnc2[nH]cc([C@H](C)c3c(OC(F)F)ccc(F)c3Cl)c2c1` [Example 69, (2R)-3-[4-(3-{(1S)-1-[2-Chloro-6-(difluoromethoxy)-3-fluorophenyl]ethyl}-1H-pyrrolo[2,3-b]pyridin-5-yl)-3,5-dimethyl-1H-pyrazol-1-yl]propane-1,2-diol], the values for the IC50 in the test on Karpas-299 cells and at Aurora B were no more than 0.05 µM and greater than 1 µM, respectively.
